Our source for the ED50 values is patent publication US4237307A, “15-Deoxy-16-hydroxy-16-methyl-Δ19-prostaglandins of the E and F series” (American Cyanamid Company, priority 1979, dated 1980).

Holding throughout (type): in vivo, Guinea-Pigs
Experiment [1] deals with bronchospasms elicited by intravenous injections of acetylcholine. The experiment in a line: Konzett procedure: bronchodilator activity against acetylcholine-induced bronchospasm, i.v. Conditions: Cavia porcellus; guinea pig; spasmogen acetylcholine i.v.; three logarithmic cumulative intravenous doses. How it is done: (§1) The bronchodilator activity for representative compounds of this invention was determined in Guinea-Pigs against bronchospasms elicited by intravenous injections of serotonin, histamine, and acetylcholine, by the Konzett procedure the details of which are those discussed by J. Lulling, P Lievens, F. El Sayed and J. Prignot, Arzeimittel-Forschung 18, 995 (1968).
(§2) In the table which follows, bronchodilator activity for representative compounds of the invention against spasmogenic agents serotonin, histamine, and acetylcholine is expressed as an ED50 determined from the results obtained with three logarithmic cumulative intravenous doses.

Experiment [2] deals with bronchospasms elicited by intravenous injections of serotonin. The experiment in a line: Konzett procedure: bronchodilator activity against serotonin-induced bronchospasm, i.v. Conditions: Cavia porcellus; guinea pig; spasmogen serotonin i.v.; three logarithmic cumulative intravenous doses. How it is done:
as §1, §2

Experiment [3] relates to bronchospasms elicited by intravenous injections of histamine. Kind of experiment: Konzett procedure: bronchodilator activity against histamine-induced bronchospasm, i.v. As to conditions: Cavia porcellus; guinea pig; spasmogen histamine i.v.; three logarithmic cumulative intravenous doses. How it is done: as §1, §2

For the molecule `C=CCCC(C)(O)C/C=C/[C@H]1[C@H](O)CC(=O)[C@@H]1C/C=C\CCCC(=O)O` (relative stereo) [dl-11α,16-DIHYDROXY-9-OXO-16-METHYL-5-cis-13-trans-Δ^19 PROSTATRIENOIC ACID], the ED50 (usually the midpoint of the dose-response relation) in experiment [1] worked out at 10.6 µg/kg; in experiment [2], 3.8 µg/kg; in experiment [3] it was 6.4 µg/kg.
